{"source": "ChEMBL document CHEMBL3045196", "about": "“Relationships between Insecticidal Activity of 6-Alkylthio-2-pyridyl Methanesulfonates and Acetylcholinesterase Inhibition of their Sulfone Derivatives against Nephotettix cincticeps” (J Pestic Sci, 1990)", "key": {"[1]": {"experiment": "Methanol-water partition coefficient, log k of the compound", "type": "physicochemical"}, "Nephotettix cincticeps [2]": {"test_system": "Nephotettix cincticeps", "experiment": "Insecticidal activity against resistant Nephotettix cincticeps Izumi (green rice leafhopper) assessed as mortality by foliar-spray", "type": "functional"}, "Nephotettix cincticeps [3]": {"test_system": "Nephotettix cincticeps", "experiment": "Insecticidal activity against susceptible Nephotettix cincticeps Ageo (green rice leafhopper)assessed as mortality by foliar-spray", "type": "functional"}, "[4]": {"molecular_target": "Ace-orthologous acetylcholinesterase (Nephotettix cincticeps) (UniProt Q9NJH6)", "sequence (Q9NJH6 20-677 limits assumed)": "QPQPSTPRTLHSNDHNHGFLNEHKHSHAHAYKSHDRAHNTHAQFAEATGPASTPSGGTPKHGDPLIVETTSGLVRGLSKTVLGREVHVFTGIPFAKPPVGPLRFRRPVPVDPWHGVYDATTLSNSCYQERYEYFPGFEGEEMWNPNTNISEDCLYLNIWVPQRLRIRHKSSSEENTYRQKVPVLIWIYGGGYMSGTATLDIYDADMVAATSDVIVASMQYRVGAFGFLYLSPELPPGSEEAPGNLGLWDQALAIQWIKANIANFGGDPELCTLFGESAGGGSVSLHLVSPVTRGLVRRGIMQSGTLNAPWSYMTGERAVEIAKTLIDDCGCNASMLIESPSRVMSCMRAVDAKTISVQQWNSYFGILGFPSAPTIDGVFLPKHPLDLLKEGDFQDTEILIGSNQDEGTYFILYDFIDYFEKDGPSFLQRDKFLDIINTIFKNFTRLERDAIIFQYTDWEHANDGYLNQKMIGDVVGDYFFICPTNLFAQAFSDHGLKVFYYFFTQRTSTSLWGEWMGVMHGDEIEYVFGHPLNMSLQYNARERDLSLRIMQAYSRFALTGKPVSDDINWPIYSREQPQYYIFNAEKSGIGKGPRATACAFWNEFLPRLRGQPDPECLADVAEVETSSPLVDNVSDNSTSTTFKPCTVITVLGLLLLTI", "experiment": "Inhibition of susceptible Nephotettix cincticeps Izumi (green rice leafhopper) acetylcholinesterase activity"}, "[5]": {"molecular_target": "Ace-orthologous acetylcholinesterase (Nephotettix cincticeps) (UniProt Q9NJH6)", "experiment": "Inhibition of susceptible Nephotettix cincticeps Ageo (green rice leafhopper) acetylcholinesterase activity"}}}
{"compound": "CCCC(C)Sc1cccc(OS(C)(=O)=O)n1", "note": "(stereo not drawn)", "values": [{"measurement": "log K", "setting": "[1]", "result": 0.59}, {"measurement": "log(1/LD50)", "setting": "Nephotettix cincticeps [2]", "result": 7.41}, {"measurement": "log(1/LD50)", "setting": "Nephotettix cincticeps [3]", "result": 7.65}]}
{"compound": "CCCS(=O)(=O)c1cccc(OS(C)(=O)=O)n1", "values": [{"measurement": "log K", "setting": "[1]", "result": -0.036}, {"measurement": "log(1/I50)", "setting": "[4]", "result": 8.08}, {"measurement": "log(1/I50)", "setting": "[5]", "result": 8.7}]}
{"compound": "CS(=O)(=O)Oc1cccc(S(=O)(=O)C2CCCC2)n1", "values": [{"measurement": "log K", "setting": "[1]", "result": 0.274}, {"measurement": "log(1/I50)", "setting": "[4]", "result": 9.11}, {"measurement": "log(1/I50)", "setting": "[5]", "result": 9.15}]}
{"compound": "CS(=O)(=O)Oc1cccc(SC2CCCCC2)n1", "values": [{"measurement": "log K", "setting": "[1]", "result": 0.664}, {"measurement": "log(1/LD50)", "setting": "Nephotettix cincticeps [2]", "result": 7.28}, {"measurement": "log(1/LD50)", "setting": "Nephotettix cincticeps [3]", "result": 7.69}]}
{"compound": "CCSc1cccc(OS(C)(=O)=O)n1", "values": [{"measurement": "log K", "setting": "[1]", "result": -0.034}, {"measurement": "log(1/LD50)", "setting": "Nephotettix cincticeps [2]", "result": 7.33}, {"measurement": "log(1/LD50)", "setting": "Nephotettix cincticeps [3]", "result": 8.14}]}
{"compound": "CS(=O)(=O)Oc1cccc(S(=O)(=O)c2ccccc2)n1", "values": [{"measurement": "log K", "setting": "[1]", "result": 0.236}, {"measurement": "log(1/I50)", "setting": "[4]", "result": 8}, {"measurement": "log(1/I50)", "setting": "[5]", "result": 8.14}]}
{"compound": "CS(=O)(=O)Oc1cccc(SCC2CC2)n1", "values": [{"measurement": "log K", "setting": "[1]", "result": 0.192}, {"measurement": "log(1/LD50)", "setting": "Nephotettix cincticeps [2]", "result": 7.8}, {"measurement": "log(1/LD50)", "setting": "Nephotettix cincticeps [3]", "result": 8.64}]}
{"compound": "CC(C)CSc1cccc(OS(C)(=O)=O)n1", "note": "[6-(ISOBUTYLTHIO)PYRIDIN-2-YL METHANESULFONATE]", "values": [{"measurement": "log K", "setting": "[1]", "result": 0.399}, {"measurement": "log(1/LD50)", "setting": "Nephotettix cincticeps [2]", "result": 7.95}, {"measurement": "log(1/LD50)", "setting": "Nephotettix cincticeps [3]", "result": 8.16}]}
{"compound": "CC(C)S(=O)(=O)c1cccc(OS(C)(=O)=O)n1", "values": [{"measurement": "log K", "setting": "[1]", "result": -0.115}, {"measurement": "log(1/I50)", "setting": "[4]", "result": 8.3}, {"measurement": "log(1/I50)", "setting": "[5]", "result": 9.52}]}
{"compound": "CC(C)(C)Sc1cccc(OS(C)(=O)=O)n1", "values": [{"measurement": "log K", "setting": "[1]", "result": 0.277}, {"measurement": "log(1/LD50)", "setting": "Nephotettix cincticeps [2]", "result": 6.87}, {"measurement": "log(1/LD50)", "setting": "Nephotettix cincticeps [3]", "result": 7.82}]}
{"compound": "CCCCS(=O)(=O)c1cccc(OS(C)(=O)=O)n1", "values": [{"measurement": "log K", "setting": "[1]", "result": 0.293}, {"measurement": "log(1/I50)", "setting": "[4]", "result": 8.22}, {"measurement": "log(1/I50)", "setting": "[5]", "result": 8.8}]}
{"compound": "CCC(C)Sc1cccc(OS(C)(=O)=O)n1", "note": "(stereo not drawn)", "values": [{"measurement": "log K", "setting": "[1]", "result": 0.37}, {"measurement": "log(1/LD50)", "setting": "Nephotettix cincticeps [2]", "result": 7.68}, {"measurement": "log(1/LD50)", "setting": "Nephotettix cincticeps [3]", "result": 8.24}]}
{"compound": "CC(C)CCS(=O)(=O)c1cccc(OS(C)(=O)=O)n1", "values": [{"measurement": "log K", "setting": "[1]", "result": 0.576}, {"measurement": "log(1/I50)", "setting": "[4]", "result": 7.8}, {"measurement": "log(1/I50)", "setting": "[5]", "result": 7.77}]}
{"compound": "CS(=O)(=O)Oc1cccc(SC2CCCC2)n1", "values": [{"measurement": "log K", "setting": "[1]", "result": 0.447}, {"measurement": "log(1/LD50)", "setting": "Nephotettix cincticeps [2]", "result": 7.82}, {"measurement": "log(1/LD50)", "setting": "Nephotettix cincticeps [3]", "result": 8.39}]}
{"compound": "CC(C)(C)CSc1cccc(OS(C)(=O)=O)n1", "values": [{"measurement": "log K", "setting": "[1]", "result": 0.558}, {"measurement": "log(1/LD50)", "setting": "Nephotettix cincticeps [2]", "result": 6.69}, {"measurement": "log(1/LD50)", "setting": "Nephotettix cincticeps [3]", "result": 8.26}]}
{"compound": "CS(=O)(=O)Oc1cccc(SCc2ccccc2)n1", "values": [{"measurement": "log K", "setting": "[1]", "result": 0.33}, {"measurement": "log(1/LD50)", "setting": "Nephotettix cincticeps [2]", "result": 6.97}, {"measurement": "log(1/LD50)", "setting": "Nephotettix cincticeps [3]", "result": 7.91}]}
{"compound": "CC(C)CCSc1cccc(OS(C)(=O)=O)n1", "values": [{"measurement": "log K", "setting": "[1]", "result": 0.614}, {"measurement": "log(1/LD50)", "setting": "Nephotettix cincticeps [2]", "result": 6.44}, {"measurement": "log(1/LD50)", "setting": "Nephotettix cincticeps [3]", "result": 7.24}]}
{"compound": "CC(C)(C)S(=O)(=O)c1cccc(OS(C)(=O)=O)n1", "values": [{"measurement": "log K", "setting": "[1]", "result": 0.085}, {"measurement": "log(1/I50)", "setting": "[4]", "result": 7.07}, {"measurement": "log(1/I50)", "setting": "[5]", "result": 7.28}]}
{"compound": "CSCCSc1cccc(OS(C)(=O)=O)n1", "values": [{"measurement": "log K", "setting": "[1]", "result": -0.174}, {"measurement": "log(1/LD50)", "setting": "Nephotettix cincticeps [2]", "result": 6.54}, {"measurement": "log(1/LD50)", "setting": "Nephotettix cincticeps [3]", "result": 7.7}]}
{"compound": "CCCCCSc1cccc(OS(C)(=O)=O)n1", "values": [{"measurement": "log K", "setting": "[1]", "result": 0.649}, {"measurement": "log(1/LD50)", "setting": "Nephotettix cincticeps [2]", "result": 6.74}, {"measurement": "log(1/LD50)", "setting": "Nephotettix cincticeps [3]", "result": 7.43}]}
{"compound": "CS(=O)(=O)Oc1cccc(S(=O)(=O)C2CCCCC2)n1", "values": [{"measurement": "log K", "setting": "[1]", "result": 0.565}, {"measurement": "log(1/I50)", "setting": "[4]", "result": 9.1}, {"measurement": "log(1/I50)", "setting": "[5]", "result": 9.02}]}
{"compound": "CCCCCS(=O)(=O)c1cccc(OS(C)(=O)=O)n1", "values": [{"measurement": "log K", "setting": "[1]", "result": 0.632}, {"measurement": "log(1/I50)", "setting": "[4]", "result": 8}, {"measurement": "log(1/I50)", "setting": "[5]", "result": 8.15}]}
{"compound": "CC(C)CS(=O)(=O)c1cccc(OS(C)(=O)=O)n1", "values": [{"measurement": "log K", "setting": "[1]", "result": 0.274}, {"measurement": "log(1/I50)", "setting": "[4]", "result": 8.4}, {"measurement": "log(1/I50)", "setting": "[5]", "result": 9.15}]}
{"compound": "CS(=O)(=O)Oc1cccc(S(=O)(=O)Cc2ccccc2)n1", "values": [{"measurement": "log K", "setting": "[1]", "result": 0.35}, {"measurement": "log(1/I50)", "setting": "[4]", "result": 8.09}, {"measurement": "log(1/I50)", "setting": "[5]", "result": 8.82}]}
{"compound": "CCCC(C)S(=O)(=O)c1cccc(OS(C)(=O)=O)n1", "note": "(stereo not drawn)", "values": [{"measurement": "log K", "setting": "[1]", "result": 0.507}, {"measurement": "log(1/I50)", "setting": "[4]", "result": 9.7}, {"measurement": "log(1/I50)", "setting": "[5]", "result": 9.3}]}
{"compound": "CCC(C)S(=O)(=O)c1cccc(OS(C)(=O)=O)n1", "note": "(stereo not drawn)", "values": [{"measurement": "log K", "setting": "[1]", "result": 0.188}, {"measurement": "log(1/I50)", "setting": "[4]", "result": 9}, {"measurement": "log(1/I50)", "setting": "[5]", "result": 8.7}]}
{"compound": "CC(C)Sc1cccc(OS(C)(=O)=O)n1", "values": [{"measurement": "log K", "setting": "[1]", "result": 0.163}, {"measurement": "log(1/LD50)", "setting": "Nephotettix cincticeps [2]", "result": 7.39}, {"measurement": "log(1/LD50)", "setting": "Nephotettix cincticeps [3]", "result": 8.43}]}
{"compound": "CCCCSc1cccc(OS(C)(=O)=O)n1", "values": [{"measurement": "log K", "setting": "[1]", "result": 0.425}, {"measurement": "log(1/LD50)", "setting": "Nephotettix cincticeps [2]", "result": 7.41}, {"measurement": "log(1/LD50)", "setting": "Nephotettix cincticeps [3]", "result": 8.3}]}
{"compound": "CS(=O)(=O)Oc1cccc(Sc2ccccc2)n1", "values": [{"measurement": "log K", "setting": "[1]", "result": 0.268}, {"measurement": "log(1/LD50)", "setting": "Nephotettix cincticeps [2]", "result": 7.3}, {"measurement": "log(1/LD50)", "setting": "Nephotettix cincticeps [3]", "result": 8.53}]}
{"compound": "CCS(=O)(=O)c1cccc(OS(C)(=O)=O)n1", "values": [{"measurement": "log K", "setting": "[1]", "result": -0.358}, {"measurement": "log(1/I50)", "setting": "[4]", "result": 7.22}, {"measurement": "log(1/I50)", "setting": "[5]", "result": 8.02}]}
{"compound": "CSc1cccc(OS(C)(=O)=O)n1", "values": [{"measurement": "log K", "setting": "[1]", "result": 0.259}, {"measurement": "log(1/LD50)", "setting": "Nephotettix cincticeps [2]", "result": 5.74}, {"measurement": "log(1/LD50)", "setting": "Nephotettix cincticeps [3]", "result": 6.71}]}
{"compound": "CCCSc1cccc(OS(C)(=O)=O)n1", "values": [{"measurement": "log K", "setting": "[1]", "result": 0.196}, {"measurement": "log(1/LD50)", "setting": "Nephotettix cincticeps [2]", "result": 7.65}, {"measurement": "log(1/LD50)", "setting": "Nephotettix cincticeps [3]", "result": 8.57}]}
{"compound": "CS(=O)(=O)Oc1cccc(S(C)(=O)=O)n1", "values": [{"measurement": "log K", "setting": "[1]", "result": -0.602}, {"measurement": "log(1/I50)", "setting": "[5]", "result": 7.17}]}
